# Laboratory results reported in ChEMBL document CHEMBL3885861, “Open TG-GATES”.
# Species: Rattus norvegicus
# Test: Open TG-GATES - Regimen: Single
# Type: toxicity, organism-based, Sprague-Dawley
# Set-up: regimen Single, gender Male, age 6 weeks
# Conditions: in vivo, po, 30 mg/kg, route gavage, dose level Middle; for APTT / Bas / Eos / Fbg / Hb / Ht / Lym / MCH / MCHC / MCV / Mono / Neu / PT / Plat / RBC / Ret / WBC: tissue Blood; for KIDNEY_L / KIDNEY_R / KIDNEY_TOTAL: tissue Kidney; for LIVER: tissue Liver; for A/G / ALP / ALT / AST / BUN / CRE / Ca / Cl / DBIL / GLC / IP / K / LDH / Na / PL / RALB / TBIL / TC / TG / TP / gamma-GTP: tissue Plasma
compound,measurement,setting,value
CCN(CC)N=O [N-NITROSODIETHYLAMINE],TERMINAL_BW,3 h,220.7 g
same,APTT,3 h,19.6 s
same,Bas,3 h,0%
same,Eos,3 h,1%
same,Fbg,3 h,200.2 mg/dL
same,Hb,3 h,13.1 g/dL
same,Ht,3 h,37.7%
same,Lym,3 h,80.2%
same,MCH,3 h,21.4 pg
same,MCHC,3 h,34.6%
same,MCV,3 h,61.8 fL
same,Mono,3 h,1.6%
same,Neu,3 h,16.6%
same,PT,3 h,12 s
same,Plat,3 h,118.4 x10_4/uL
same,RBC,3 h,610.2 x10_4/ul
same,Ret,3 h,7.2%
same,WBC,3 h,67.1 x10_2/uL
same,KIDNEY_L,3 h,1 g
same,KIDNEY_R,3 h,1 g
same,KIDNEY_TOTAL,3 h,2 g
same,LIVER,3 h,9.5 g
same,A/G,3 h,1.6
same,ALP,3 h,868.6 IU/L
same,ALT,3 h,37.8 IU/L
same,AST,3 h,72 IU/L
same,BUN,3 h,11 mg/dL
same,CRE,3 h,0.4 mg/dL
same,Ca,3 h,10.1 mg/dL
same,Cl,3 h,102.4 meq/L
same,DBIL,3 h,0.06 mg/dL
same,GLC,3 h,195.6 mg/dL
same,IP,3 h,8.6 mg/dL
same,K,3 h,3.6 meq/L
same,LDH,3 h,179.2 IU/L
same,Na,3 h,140.6 meq/L
same,PL,3 h,130.2 mg/dL
same,RALB,3 h,3.3 g/dL
same,TBIL,3 h,0.1 mg/dL
same,TC,3 h,82.6 mg/dL
same,TG,3 h,38.6 mg/dL
same,TP,3 h,5.4 g/dL
same,gamma-GTP,3 h,0.8 IU/L
same,TERMINAL_BW,6 h,224.6 g
same,APTT,6 h,18.5 s
same,Bas,6 h,0.6%
same,Eos,6 h,1%
same,Fbg,6 h,234.2 mg/dL
same,Hb,6 h,13.4 g/dL
same,Ht,6 h,38.8%
same,Lym,6 h,78.8%
same,MCH,6 h,21.8 pg
same,MCHC,6 h,34.5%
same,MCV,6 h,63.1 fL
same,Mono,6 h,2.8%
same,Neu,6 h,16.2%
same,PT,6 h,12.4 s
same,Plat,6 h,135.1 x10_4/uL
same,RBC,6 h,615.6 x10_4/ul
same,Ret,6 h,7.7%
same,WBC,6 h,111.7 x10_2/uL
same,KIDNEY_L,6 h,1 g
same,KIDNEY_R,6 h,1 g
same,KIDNEY_TOTAL,6 h,1.9 g
same,LIVER,6 h,9.9 g
same,A/G,6 h,1.6
same,ALP,6 h,932.2 IU/L
same,ALT,6 h,40.6 IU/L
same,AST,6 h,78 IU/L
same,BUN,6 h,14.2 mg/dL
same,CRE,6 h,0.4 mg/dL
same,Ca,6 h,10.3 mg/dL
same,Cl,6 h,104.2 meq/L
same,DBIL,6 h,0.072 mg/dL
same,GLC,6 h,186.4 mg/dL
same,IP,6 h,8.3 mg/dL
same,K,6 h,3.9 meq/L
same,LDH,6 h,224 IU/L
same,Na,6 h,141 meq/L
same,PL,6 h,130.8 mg/dL
same,RALB,6 h,3.3 g/dL
same,TBIL,6 h,0.1 mg/dL
same,TC,6 h,81.4 mg/dL
same,TG,6 h,37.8 mg/dL
same,TP,6 h,5.4 g/dL
same,gamma-GTP,6 h,1.6 IU/L
same,TERMINAL_BW,9 h,224.1 g
same,APTT,9 h,18.7 s
same,Bas,9 h,0.4%
same,Eos,9 h,1%
same,Fbg,9 h,229 mg/dL
same,Hb,9 h,13.7 g/dL
same,Ht,9 h,39.6%
same,Lym,9 h,79.6%
same,MCH,9 h,21.5 pg
same,MCHC,9 h,34.4%
same,MCV,9 h,62.4 fL
same,Mono,9 h,3%
same,Neu,9 h,15%
same,PT,9 h,12.4 s
same,Plat,9 h,126.6 x10_4/uL
same,RBC,9 h,635.4 x10_4/ul
same,Ret,9 h,7.1%
same,WBC,9 h,94.4 x10_2/uL
same,KIDNEY_L,9 h,1 g
same,KIDNEY_R,9 h,1 g
same,KIDNEY_TOTAL,9 h,1.9 g
same,LIVER,9 h,10 g
same,A/G,9 h,1.7
same,ALP,9 h,978.4 IU/L
same,ALT,9 h,45.6 IU/L
same,AST,9 h,80.4 IU/L
same,BUN,9 h,15.4 mg/dL
same,CRE,9 h,0.4 mg/dL
same,Ca,9 h,10.4 mg/dL
same,Cl,9 h,103.4 meq/L
same,DBIL,9 h,0.088 mg/dL
same,GLC,9 h,186 mg/dL
same,IP,9 h,8.6 mg/dL
same,K,9 h,3.8 meq/L
same,LDH,9 h,191.6 IU/L
same,Na,9 h,141.2 meq/L
same,PL,9 h,130.4 mg/dL
same,RALB,9 h,3.5 g/dL
same,TBIL,9 h,0.1 mg/dL
same,TC,9 h,76.8 mg/dL
same,TG,9 h,44.8 mg/dL
same,TP,9 h,5.5 g/dL
same,gamma-GTP,9 h,1.4 IU/L
same,TERMINAL_BW,24 h,225 g
same,APTT,24 h,17.9 s
same,Bas,24 h,1%
same,Eos,24 h,1%
same,Fbg,24 h,217.4 mg/dL
same,Hb,24 h,14 g/dL
same,Ht,24 h,41.2%
same,Lym,24 h,81%
same,MCH,24 h,21.6 pg
same,MCHC,24 h,33.9%
same,MCV,24 h,63.8 fL
same,Mono,24 h,3%
same,Neu,24 h,13.6%
same,PT,24 h,12.7 s
same,Plat,24 h,125.9 x10_4/uL
same,RBC,24 h,645.6 x10_4/ul
same,Ret,24 h,6.7%
same,WBC,24 h,95.1 x10_2/uL
same,KIDNEY_L,24 h,1 g
same,KIDNEY_R,24 h,1 g
same,KIDNEY_TOTAL,24 h,2 g
same,LIVER,24 h,9.5 g
same,A/G,24 h,1.6
same,ALP,24 h,918.6 IU/L
same,ALT,24 h,37.8 IU/L
same,AST,24 h,71 IU/L
same,BUN,24 h,12.8 mg/dL
same,CRE,24 h,0.4 mg/dL
same,Ca,24 h,10.7 mg/dL
same,Cl,24 h,103.4 meq/L
same,DBIL,24 h,0.084 mg/dL
same,GLC,24 h,193 mg/dL
same,IP,24 h,9 mg/dL
same,K,24 h,3.9 meq/L
same,LDH,24 h,212.4 IU/L
same,Na,24 h,140.6 meq/L
same,PL,24 h,135.8 mg/dL
same,RALB,24 h,3.3 g/dL
same,TBIL,24 h,0.1 mg/dL
same,TC,24 h,78.4 mg/dL
same,TG,24 h,47.2 mg/dL
same,TP,24 h,5.3 g/dL
same,gamma-GTP,24 h,1.4 IU/L
